Results taken from PubChem BioAssay (NCI).
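Interpolation was linear, between the two tested concentrations surrounding the appropriate level; five concentrations were tested over 48 hours in 96-well plates. GI50 is the concentration that inhibits growth by half. TGI: total growth inhibition.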

Experiments:
Test in all cases: NCI anticancer screen, dose series, 48 h
A498 renal = system: A498 renal
M14 melanoma = system: M14 melanoma
CCRF-CEM leukemia = system: CCRF-CEM leukemia
CAKI-1 renal = system: CAKI-1 renal
OVCAR-3 ovarian = system: OVCAR-3 ovarian
UACC-257 melanoma = system: UACC-257 melanoma
SK-MEL-5 melanoma = system: SK-MEL-5 melanoma
HCT-116 colon = system: HCT-116 colon
HOP-62 NSCLC = system: HOP-62 NSCLC
DU-145 prostate = system: DU-145 prostate

## COc1ccccc1NC(=O)C1=C(C)NC(C)=C(C(=O)Nc2ccccc2OC)C1c1cccc2ccccc12
A498 renal
  TGI: > 100 µM
M14 melanoma
  TGI: > 100 µM
CCRF-CEM leukemia
  TGI: > 100 µM
CAKI-1 renal
  TGI: > 100 µM
OVCAR-3 ovarian
  TGI: > 100 µM
UACC-257 melanoma
  TGI: > 100 µM
SK-MEL-5 melanoma
  TGI: > 100 µM
HCT-116 colon
  TGI: > 100 µM

## CCSc1ccc([C@@H]2[C@@H](N)C(=O)N2c2cc(OC)c(OC)c(OC)c2)cc1
A498 renal
  GI50: 0.0563 µM
  TGI: 8.29 µM
M14 melanoma
  GI50: 0.0456 µM
  TGI: > 100 µM
CCRF-CEM leukemia
  GI50: 0.0439 µM
  TGI: > 100 µM
OVCAR-3 ovarian
  GI50: 0.0338 µM
  TGI: 2.08 µM
HOP-62 NSCLC
  GI50: 0.06 µM
  TGI: > 100 µM
UACC-257 melanoma
  GI50: > 100 µM
  TGI: > 100 µM
SK-MEL-5 melanoma
  GI50: 0.0783 µM
  TGI: > 100 µM
DU-145 prostate
  GI50: 0.188 µM
  TGI: > 100 µM
HCT-116 colon
  GI50: 0.0448 µM
  TGI: > 100 µM

## COc1ccc(/C=C\c2cc(OC)c(OC)c(OC)c2)cc1OCC(=O)Nc1nc2ccccc2s1
A498 renal
  GI50: 0.346 µM
  TGI: > 83.4 µM
M14 melanoma
  GI50: 0.0527 µM
  TGI: > 100 µM
CCRF-CEM leukemia
  GI50: 0.134 µM
  TGI: > 100 µM
CAKI-1 renal
  GI50: 0.309 µM
  TGI: > 35.8 µM
HOP-62 NSCLC
  GI50: 0.298 µM
  TGI: > 100 µM
UACC-257 melanoma
  GI50: 11 µM
  TGI: > 100 µM
SK-MEL-5 melanoma
  GI50: 0.0405 µM
  TGI: 0.263 µM
DU-145 prostate
  GI50: 0.14 µM
  TGI: > 100 µM
HCT-116 colon
  GI50: 0.0439 µM
  TGI: > 100 µM

## O=C1c2cccc3c(Cl)ccc(c23)C(=O)N1CCCN1CCN(CCCN2C(=O)c3cccc4c(Cl)ccc(c34)C2=O)CC1
A498 renal
  TGI: > 100 µM
M14 melanoma
  TGI: > 100 µM
CCRF-CEM leukemia
  TGI: > 100 µM
CAKI-1 renal
  TGI: > 100 µM
OVCAR-3 ovarian
  TGI: > 100 µM
HOP-62 NSCLC
  TGI: > 100 µM
UACC-257 melanoma
  TGI: > 100 µM
SK-MEL-5 melanoma
  TGI: > 100 µM
HCT-116 colon
  TGI: > 100 µM

## CCOC(=O)c1ccccc1SC(C[N+](=O)[O-])c1ccccc1 (stereo unspecified)
A498 renal
  GI50: 3.63 µM
  TGI: 16 µM
M14 melanoma
  GI50: 2.01 µM
  TGI: 4.43 µM
CCRF-CEM leukemia
  GI50: 4.64 µM
  TGI: 36.2 µM
CAKI-1 renal
  GI50: 14.8 µM
  TGI: 31.2 µM
OVCAR-3 ovarian
  GI50: 10.4 µM
  TGI: 22.4 µM
HOP-62 NSCLC
  GI50: 16.9 µM
  TGI: 32.1 µM
SK-MEL-5 melanoma
  GI50: 5.09 µM
  TGI: 17.4 µM
DU-145 prostate
  GI50: 5.91 µM
  TGI: 18.4 µM
HCT-116 colon
  GI50: 1.46 µM
  TGI: 2.98 µM

## COc1cc(-c2nc(-c3ccc(-c4nc5ccc(F)cc5[nH]4)cc3)no2)cc(OC)c1OC
A498 renal
  GI50: 4.19 µM
  TGI: 26.1 µM
M14 melanoma
  GI50: 3.23 µM
  TGI: 10.5 µM
CCRF-CEM leukemia
  GI50: 2.97 µM
  TGI: 22.3 µM
CAKI-1 renal
  GI50: 2.76 µM
  TGI: 9.13 µM
OVCAR-3 ovarian
  GI50: 2.56 µM
  TGI: 5.83 µM
HOP-62 NSCLC
  GI50: 3.21 µM
  TGI: 9.15 µM
UACC-257 melanoma
  GI50: 3.7 µM
  TGI: 14.8 µM
SK-MEL-5 melanoma
  GI50: 2.22 µM
  TGI: 10.2 µM
DU-145 prostate
  GI50: 3.96 µM
  TGI: 15.3 µM

## COc1cc(OC)c(F)c(COc2cnc(Nc3cnn(CCO)c3)nc2)c1F
A498 renal
  GI50: < 0.0107 µM
  TGI: 0.138 µM
CCRF-CEM leukemia
  GI50: 0.669 µM
  TGI: > 100 µM
CAKI-1 renal
  GI50: 0.394 µM
  TGI: 2.87 µM
OVCAR-3 ovarian
  GI50: 0.429 µM
  TGI: > 100 µM
HOP-62 NSCLC
  GI50: 0.423 µM
  TGI: 4.58 µM
UACC-257 melanoma
  GI50: 1.45 µM
  TGI: > 100 µM
SK-MEL-5 melanoma
  GI50: 0.501 µM
  TGI: 2.71 µM
DU-145 prostate
  GI50: 2.15 µM
  TGI: > 100 µM
HCT-116 colon
  GI50: 0.386 µM
  TGI: > 100 µM

## CCCCCCCCNC(C)C(O)c1ccc(SC(C)C)cc1 (stereo unspecified)
A498 renal
  GI50: 1.5 µM
  TGI: 2.86 µM
M14 melanoma
  GI50: 1.72 µM
  TGI: 3.26 µM
CCRF-CEM leukemia
  GI50: 2.44 µM
  TGI: 7.19 µM
CAKI-1 renal
  GI50: 1.54 µM
  TGI: 3.08 µM
OVCAR-3 ovarian
  GI50: 1.98 µM
  TGI: 3.46 µM
HOP-62 NSCLC
  GI50: 1.53 µM
  TGI: 2.87 µM
SK-MEL-5 melanoma
  GI50: 1.62 µM
  TGI: 2.99 µM
DU-145 prostate
  GI50: 1.86 µM
  TGI: 3.27 µM
HCT-116 colon
  GI50: 1.59 µM
  TGI: 3.11 µM

## ClC1c2ccccc2C2(c3ccccc3)OOC1(c1ccccc1)O2 (stereo unspecified)
A498 renal
  TGI: 4.45 µM
M14 melanoma
  TGI: 2.76 µM
CAKI-1 renal
  TGI: 6.19 µM
OVCAR-3 ovarian
  TGI: 3.3 µM
HOP-62 NSCLC
  TGI: 22.9 µM
UACC-257 melanoma
  TGI: 3.65 µM
SK-MEL-5 melanoma
  TGI: 2.83 µM

## Cc1cccc(C(C)C)c1NC(=O)CCl
A498 renal
  TGI: > 100 µM
M14 melanoma
  TGI: > 100 µM
CCRF-CEM leukemia
  TGI: > 100 µM
CAKI-1 renal
  TGI: 91.7 µM
OVCAR-3 ovarian
  TGI: 59.9 µM
HOP-62 NSCLC
  TGI: 98.8 µM
UACC-257 melanoma
  TGI: > 100 µM
SK-MEL-5 melanoma
  TGI: > 100 µM
HCT-116 colon
  TGI: > 100 µM

## COc1cc(C(=O)O/N=C(\N)Cc2cccc3ccccc23)cc(OC)c1OC
A498 renal
  GI50: 5.79 µM
  TGI: 60.7 µM
CCRF-CEM leukemia
  GI50: 3.62 µM
  TGI: 23.3 µM
CAKI-1 renal
  GI50: 5.91 µM
  TGI: 19.5 µM
OVCAR-3 ovarian
  GI50: 9.62 µM
  TGI: 23.3 µM
HOP-62 NSCLC
  GI50: 4.42 µM
  TGI: 18.7 µM
UACC-257 melanoma
  GI50: 15.2 µM
  TGI: 29.2 µM
SK-MEL-5 melanoma
  GI50: 2.05 µM
  TGI: 4.71 µM
DU-145 prostate
  GI50: 11.4 µM
  TGI: 23.7 µM
HCT-116 colon
  GI50: 3.13 µM
  TGI: 13 µM

## Fc1ccc([C@@H]2CCNC[C@H]2COc2ccc3c(c2)OCO3)cc1
A498 renal
  GI50: 5.52 µM
  TGI: 19.2 µM
M14 melanoma
  GI50: 2.93 µM
  TGI: 11.1 µM
CAKI-1 renal
  GI50: 12.1 µM
  TGI: 25.3 µM
OVCAR-3 ovarian
  GI50: 10.5 µM
  TGI: 22.8 µM
HOP-62 NSCLC
  GI50: 13.3 µM
  TGI: 27.4 µM
UACC-257 melanoma
  GI50: 11.2 µM
  TGI: 24.6 µM
SK-MEL-5 melanoma
  GI50: 4.42 µM
  TGI: 17 µM
DU-145 prostate
  GI50: 13.1 µM
  TGI: 26.5 µM
HCT-116 colon
  GI50: 6.07 µM
  TGI: 21.8 µM

## CC(C)CN1CC(C)C(=O)NC1=O (stereo unspecified)
A498 renal
  TGI: > 100 µM
CCRF-CEM leukemia
  TGI: > 100 µM
CAKI-1 renal
  TGI: > 100 µM
HOP-62 NSCLC
  TGI: > 100 µM
UACC-257 melanoma
  TGI: > 100 µM
SK-MEL-5 melanoma
  TGI: > 100 µM

## COc1ccc(-n2cc(-c3cc(OC)c(OC)c(OC)c3)[nH]c2=S)cc1Cl
CCRF-CEM leukemia
  GI50: 0.6 µM
  TGI: > 100 µM
CAKI-1 renal
  GI50: 4.86 µM
  TGI: 33.7 µM
OVCAR-3 ovarian
  GI50: 26.1 µM
  TGI: > 100 µM
HOP-62 NSCLC
  GI50: 22.1 µM
  TGI: 52.8 µM
UACC-257 melanoma
  GI50: > 100 µM
  TGI: > 100 µM
SK-MEL-5 melanoma
  GI50: 27.2 µM
  TGI: > 100 µM
DU-145 prostate
  GI50: 35.7 µM
  TGI: > 100 µM
HCT-116 colon
  GI50: 24.4 µM
  TGI: > 100 µM

## CCCC(C)c1c(Cl)nc(Cl)nc1Cl (stereo unspecified)
M14 melanoma
  TGI: 3.92 µM
CCRF-CEM leukemia
  TGI: > 100 µM
OVCAR-3 ovarian
  TGI: 21.3 µM
HOP-62 NSCLC
  TGI: 20.6 µM
UACC-257 melanoma
  TGI: 26.2 µM
SK-MEL-5 melanoma
  TGI: 13.9 µM
DU-145 prostate
  TGI: 28.3 µM
HCT-116 colon
  TGI: 3.66 µM

## CCC(C)c1cccc(C)c1NC(=O)C(=O)Cc1nc2ccccc2s1 (stereo unspecified)
A498 renal
  TGI: > 100 µM
M14 melanoma
  TGI: > 100 µM
CCRF-CEM leukemia
  TGI: > 100 µM
CAKI-1 renal
  TGI: > 100 µM
OVCAR-3 ovarian
  TGI: > 100 µM
HOP-62 NSCLC
  TGI: > 100 µM
UACC-257 melanoma
  TGI: > 100 µM
SK-MEL-5 melanoma
  TGI: > 100 µM
HCT-116 colon
  TGI: > 100 µM
